This is an account of results in US20210116454A1, “METHODS FOR TREATING A HEMATOLOGICAL CANCER AND THE USE OF COMPANION BIOMARKERS FOR 2-(2,6-DIOXOPIPERIDIN-3-YL)-4-((2-FLUORO-4-((3-MORPHOLINOAZETIDIN-1-YL)METHYL)BENZYL)AMINO)ISOINDOLINE-1,3-DIONE” (CELGENE CORPORATION, priority 2019, published 2021).

Experiment [1] deals with SU-DHL-4. Briefly: CellTiter-Glo (CTG) antiproliferative assay, 5-day. The class given is cell-based. The note with it: for antiproliferative activity (in words): SU-DHL-4, CellTiter-Glo. The protocol:
To evaluate the activity of both Compound 1 and Compound 2 in DLBCL cells, a CellTiter-Glo (CTG) assay was performed to measure the antiproliferative activity.
A general note: In ATP-based viability assays light output follows the ATP content of the culture.

A further experiment addresses T1, Aiolos (Homo sapiens, UniProt Q96SW2+Q9UKT9).
T1 construct: expressed in transfected cells; host or cells: DF15 cells
As to the kind of experiment: ePL-tagged substrate degradation kinetics in DF15 cells (enantiomer comparison). The class given is cell-based. The arrangement: Aiolos Y-constant: scale not given here. Conditions: for DC50: read-out: Aiolos EC50. The protocol:
(§1) In a second assay, DF15 cell lines expressing ePL-tagged target protein substrates were used as a model system to monitor protein degradation at 0.75, 1, 1.5, 3, 4, and 24 hours over a concentration range from 1 pM to 10 μM. The proteins evaluated were Ikaros (FIG. 17), Aiolos, and ZFP91. Compound 1 and Compound 2 were both able to degrade the substrate proteins at all time points (Table 9). In a further assay, additional time points were included to monitor the effect of treatment with Compound 1 and Compound 2.
(§2) The depth of substrate protein degradation described by the Y-constant was also measured in this assay against a negative control luciferase inhibitor (CC1071297, Y-constant=0).

The target in the next experiment is cereblon (CRBN) (Homo sapiens, UniProt Q96SW2). As to the kind of experiment: Cereblon binding TR-FRET ligand competition assay. The note with it: 10 to 20 minutes, n=5. How it is done: To investigate whether Compound 1 and its R-enantiomer Compound 2 could bind to cereblon, a short duration (10 to 20 minutes) ligand competition assay was used.
On the technique in general: In TR-FRET formats the signal depends on donor and acceptor labels being close together.

The subject of another experiment is SU-DHL-2 cells. As to the kind of experiment: Western blot of substrate degradation by each enantiomer, short time-course. The class given is cell-based. The note with it: SU-DHL-2, higher concentrations and longer exposure. The protocol:
Pure samples of each enantiomer were tested for cellular degradation of substrate proteins measured over a short time-course (FIG. 16). SU-DHL-2 cells were treated for 1, 2, and 6 hours with vehicle control (0.1% DMSO), Compound 1 (1, 10, 100 nM), or Compound 2 (1, 10, 100 nM). Western blot analysis was used to evaluate the extent of degradation of the protein substrates Aiolos, Ikaros, and ZFP91. Compound 1 inhibited Aiolos, Ikaros, and ZFP91 in as early as 1 hour of treatment with as little as 1 nM.

The next experiment deals with T2, ZFP91 (Homo sapiens, UniProt Q96JP5+Q96SW2).
T2 construct: expressed in transfected cells; host or cells: DF15 cells
As to the kind of experiment: ePL-tagged substrate degradation kinetics in DF15 cells (enantiomer comparison). The class given is cell-based. The arrangement: ZFP91 Y-constant: scale not given here. The note with it: for DC50: read-out: ZFP91 EC50. The protocol: as §1, §2

A further experiment has as its target Ikaros (Homo sapiens, UniProt Q13422+Q96SW2). The experiment is described as above. The class given is cell-based. Also on record: expressed in transfected cells; host or cells: DF15 cells; Ikaros Y-constant: scale not given here. The note with it: for DC50: read-out: Ikaros EC50. The protocol: as §1, §2
The test system of a further experiment is SU-DHL-8. Briefly: 5-day viable cell number and apoptosis (7-AAD exclusion/Annexin V flow cytometry). It is filed as cell-based. Conditions: Homo sapiens; SU-DHL-8 cells (Table 3); read-out: IC50. An excerpt:
(§3) The DLBCL panel includes seven cell lines classified as activated B-cell (ABC) subtype, thirteen cell lines classified as the germinal center B-cell (GCB) subtype, and three cell lines classified as primary mediastinal B-cell lymphoma (PMBL). […] The translocation of MYC, BCL6, or BCL2 to an IG locus usually leads to high levels of mRNA and protein due to the active transcription driven by a constitutively active IG promoter. […] Expressions of CRBN protein and known substrates, Ikaros, Aiolos, and ZFP91 were also evaluated (FIG. 1, panels B and C).
(§4) The panel of cell lines were treated with increasing doses of compounds for five days, at which time the number of viable cells was measured and the amount of apoptosis was determined by 7-AAD exclusion and Annexin V staining using flow cytometry.

In a further experiment the test system is Farage. Described as above. It is filed as cell-based. Conditions: Farage cells (Table 3); read-out: IC50.
Description: as §3, §4

The subject of the next experiment is KARPAS-1106P. The description is as above. The class given is cell-based. Conditions: Homo sapiens; KARPAS-1106P cells (Table 3); read-out: IC50.
Description: as §3, §4

Another experiment concerns DB. Described as above. The class given is cell-based. The note with it: Homo sapiens; DB cells (Table 3).
Description: as §3, §4

A further experiment relates to SU-DHL-2. The description is as above. The class given is cell-based. The note with it: Homo sapiens; SU-DHL-2 cells (Table 3); read-out: IC50.
Description: as §3, §4

Another experiment relates to RIVA. Described as above. The class given is cell-based. The note with it: RIVA cells (Table 3); read-out: IC50.
Description: as §3, §4

A further experiment deals with SU-DHL-16. The experiment is described as above. The class given is cell-based. The note with it: Homo sapiens; SU-DHL-16 cells (Table 3); read-out: IC50.
Description: as §3, §4

For another experiment, the system named is SU-DHL-10. The experiment is described as above. The class given is cell-based. The note with it: Homo sapiens, SU-DHL10; SU-DHL-10 cells (Table 3); read-out: IC50.
Description: as §3, §4

A further experiment deals with OCI-Ly10. The description is as above. The class given is cell-based. Conditions: Homo sapiens; OCI-Ly10 cells (Table 3); read-out: IC50.
Description: as §3, §4

In the next experiment the test system is Pfeiffer. The experiment is described as above. It is filed as cell-based. Conditions: Homo sapiens; Pfeiffer cells (Table 3).
Description: as §3, §4

The next experiment has as its system WSU-DLCL2. The description is as above. The class given is cell-based. Conditions: Homo sapiens, WSUDLCL2; WSU-DLCL2 cells (Table 3); read-out: IC50.
Description: as §3, §4

The test system of a further experiment is OCI-LY-7. Described as above. Conditions: Homo sapiens, OCI-Ly7; OCI-LY-7 cells (Table 3); read-out: IC50. The class given is cell-based.
Description: as §3, §4

In a further experiment the test system is HT. Described as above. It is filed as cell-based. The note with it: Homo sapiens; HT cells (Table 3); read-out: IC50.
Description: as §3, §4

The test system of experiment [2] is SU-DHL-4. Described as above. The class given is cell-based. The note with it: Homo sapiens; SU-DHL-4 cells (Table 3); read-out: IC50.
Description: as §3, §4

The subject of the next experiment is RC-K8. The experiment is described as above. It is filed as cell-based. The note with it: Homo sapiens, RCK8; RC-K8 cells (Table 3); read-out: IC50.
Description: as §3, §4

In the next experiment the test system is KARPAS-422. The description is as above. The class given is cell-based. The note with it: Homo sapiens; KARPAS-422 cells (Table 3); read-out: IC50.
Description: as §3, §4

For the next experiment, the system named is U2932. Described as above. The class given is cell-based. The note with it: Homo sapiens; U2932 cells (Table 3); read-out: IC50.
Description: as §3, §4

Each structure is given as a SMILES string. Like-named read-outs stand apart in the source and are kept apart here.

What is called IC50 is the concentration at which inhibition is half-maximal.

Consider `O=C1CCC(N2C(=O)c3cccc(NCc4ccc(CN5CC(N6CCOCC6)C5)cc4F)c3C2=O)C(=O)N1` (racemic) [Compound 3, 2-(2,6-Dioxopiperidin-3-yl)-4-((2-fluoro-4-((3-morpholinoazetidin-1-yl)methyl)benzyl)amino)isoindoline-1,3-dione], for which the “antiproliferative activity (in words)” value in the experiment on SU-DHL-4 [1] was “Potent antiproliferative activity”.
Regarding `O=C1CC[C@@H](N2C(=O)c3cccc(NCc4ccc(CN5CC(N6CCOCC6)C5)cc4F)c3C2=O)C(=O)N1` [Compound 2, (R)-2-(2,6-dioxopiperidin-3-yl)-4-((2-fluoro-4-((3-morpholinoazetidin-1-yl)methyl)benzyl)amino)isoindoline-1,3-dione], the IC50 with SU-DHL-4 [1] (Homo sapiens, 120 h, SU-DHL-4, 5-day assay, n = 6) stood at 0.032 µM; at cereblon (CRBN), 10.2 ± 1 µM. In addition, the “antiproliferative activity (in words)” value in the experiment with SU-DHL-4 [1] is listed as “Potent antiproliferative activity”. In addition, the “Aiolos Y-constant” value amounted to 54 at Aiolos (0.75 hours); 37 at Aiolos (1 hour); 15 on Aiolos (1.5 hours); 3.5 on Aiolos (3 hours); 3.5 on Aiolos (4 hours); 3.8 on Aiolos (24 hours). Also, the DC50 at Aiolos (0.75 hours) came to 0.038 µM; at Aiolos (1 hour) it was 0.024 µM; on Aiolos (1.5 hours) it was 0.017 µM; at Aiolos (3 hours), 0.01 µM; on Aiolos (4 hours), 0.0073 µM; at Aiolos (24 hours) it was 0.0053 µM. Also, the DC50 on ZFP91 (0.75 hours) came out at 0.029 µM; at ZFP91 (1 hour), 0.025 µM; on ZFP91 (1.5 hours) it was 0.016 µM; at ZFP91 (3 hours) it was 0.0045 µM; at ZFP91 (4 hours), 0.0026 µM; on ZFP91 (24 hours), 0.00035 µM. Also, the DC50 at Ikaros (0.75 hours) turned out to be 0.0397 µM; on Ikaros (1 hour) it was 0.027 µM; at Ikaros (1.5 hours), 0.0225 µM; on Ikaros (3 hours), 0.00888 µM; at Ikaros (4 hours) it was 0.00731 µM; at Ikaros (24 hours), 0.0007 µM. Also, the “expression of Aiolos, Ikaros, and ZFP91” value in the experiment with SU-DHL-2 cells is on record as “decreased expression”. For the same molecule, the “ZFP91 Y-constant” value on ZFP91 (0.75 hours) was found to be 41; at ZFP91 (1 hour), 22; on ZFP91 (1.5 hours), 10; at ZFP91 (3 hours), 4.6; on ZFP91 (4 hours), 4.1; at ZFP91 (24 hours), 2.5. The “Ikaros Y-constant” value on Ikaros (0.75 hours) stood at 47.0; on Ikaros (1 hour) it was 34.4; on Ikaros (1.5 hours) it was 15.3; at Ikaros (3 hours) it was 7.3; on Ikaros (4 hours), 5.5; on Ikaros (24 hours) it was 2.4.
As to `CC1(C)CCC(CN2CCN(c3ccc(C(=O)NS(=O)(=O)c4ccc(NCC5CCOCC5)c([N+](=O)[O-])c4)c(Oc4cnc5[nH]ccc5c4)c3)CC2)=C(c2ccc(Cl)cc2)C1` [Venetoclax, 4-(4-{[2-(4-chlorophenyl)-4,4-dimethylcyclohex-1-en-1-yl]methyl}piperazin-1-yl)-N-({3-nitro-4-[(tetrahydro-2H-pyran-4ylmethyl)amino]phenyl}sulfonyl)-2-(1H-pyrrolo[2,3-b]pyridin-5-yloxy)benzamide, reference compound], the IC50 was 548 µM with SU-DHL-8; 560 µM in the experiment on Farage; 200 µM in the experiment with KARPAS-1106P; 82 µM in the experiment with DB; 355 µM with SU-DHL-2; 5 µM with RIVA. Besides, the IC50 in the experiment with SU-DHL-16 is 21 µM; in the experiment on SU-DHL-10, 454 µM; in the experiment with OCI-Ly10, 200 µM; in the experiment on Pfeiffer, 432 µM; with WSU-DLCL2, 215 µM; in the experiment on OCI-LY-7 it was 1010 µM. Also, the IC50 came out at 644 µM in the experiment with HT; 145 µM in the experiment with SU-DHL-4 [2]; 609 µM in the experiment on RC-K8; 75 µM with KARPAS-422; 230 µM with U2932.
